Results published in patent US9610236B2, “Cosmetic use of Queuine” (AMABIOTICS, priority 2013, dated 2017).
Entries after “also recorded” stand apart in the source; their conditions may differ.

What was measured:
Type in all cases: cell-based
[1] = tested on: HDFa, adult human dermal fibroblasts; experiment: Cell migration into calibrated acellular gap (culture inserts, image comparison); settings: 24 h
Experimental: The dilution range prepared for evaluating migration was identical to the range for evaluating kinetics with the exclusion of the 0.3 μg/ml concentration. The adult HDFs used were seeded in the presence of previously sterilised culture inserts which allowed the creation of calibrated acellular regions. 100,000 HDFa in 600 μl and 30,000 cells in 150 μl were respectively added outside and inside the inserts, in DMEM+2.5% FCS. After an incubation time of 5 h at 37° C., the inserts were removed and the wells washed twice with PBS 1× to eliminate every cell which had not adhered. The queuine molecule was then added at 30, 10, 3 or 1 μg/ml in DMEM 2.5% FCS, and an equivalent range of methanol was also carried out, two wells per condition. The wells were photographed at t=0 h and the plates then incubated for 24 h. The cells were fixed with paraformaldehyde before taking photos at 24 h. The images were analysed using ImageJ software, to improve the contrast thereof. All fields were examined and the two most representative of each condition were chosen for each time indication. Analysis was performed by comparison with the control. The adult HDFs were seeded in the presence of previously sterilised culture inserts, to create calibrated acellular regions in a confluent cell mat. The cells tend to fill the gap created by migrating from the edges to close the gap. After 5 h incubation at 37° C., the inserts were removed and the wells washed twice in PBS 1× to eliminate every non-adhering cell. Queuine was then added at 30, 10, 3 or 1 μg/ml in DMEM 2.5% FCS and an equivalent range of methanol was also prepared, two wells per condition. Photos of the wells were taken at t=0 h. The cells were cultured 24 h at 37° C., before being fixed in paraformaldehyde. Photos were taken at t=24 h. The photos were compared with each other to assess the difference in cell migration into the gap between the different assayed conditions.

[2] = tested on: HDFa, adult human dermal fibroblasts; experiment: Cell proliferation, BrdU assay; settings: for Mean ODs (BrdU cell proliferation): OD 450 nm
Experimental: (§1) The stock solution of queuine was prepared with 15 mg/ml methanol and the dilutions were obtained in DMEM (Dulbecco's Modified […]) in the presence of variable concentrations of foetal calf serum (FCS) (DMEM+2.5% FCS+antibiotics (penicillin/streptomycin)+glutamine): depleted medium with 2.5% FCS for the viability, proliferation and cell migration experiments.
This first assay allowed fine-tuning of the applied concentration range. The dilution range for the assay of cell proliferation kinetics was as follows:
(§2) Cell type: HDFa, adult human dermal fibroblasts, person, used between passage 4 and passage 6.
(§3) The adult HDFs used were seeded to a proportion of 5×10^3 cells/well in 96-well plates (passage 4) in 200 μl culture medium without FCS (supplemented DMEM+0% FCS). 24 h after seeding, the culture medium was changed and the different dilutions of the product or its carrier (methanol) were added at 200 μl per well, with 3 wells per culture condition.
Cell proliferation was evaluated using an assay of ELISA type (BrdU assay, Bromodeoxyuridine) after 1, 2 and 3 days of culture.
BrdU is a synthetic nucleoside and an analogue of thymidine, which can be recognised by an anti-BrdU antibody. It is incorporated during DNA replication of the proliferating cells. The anti-BrdU antibody is coupled to an enzyme which, in the presence of its substrate, will degrade the latter. Detection of BrdU is therefore carried out by colorimetric enzymatic assay.
Degradation of the enzyme substrate will stain the supernatant proportional to the amount of incorporated BrdU. Measurement is then performed by read-out of optical density (OD) using a spectrophotometer at a wavelength of 450 nm. The assay was conducted at D1, D2 and D3 (D0 corresponding to the time of addition of the solutions to be assayed).

[3] = tested on: HDFa, adult human dermal fibroblasts; experiment: Cytotoxicity / cell viability, MTT assay; settings: for Mean - blank (cell viability OD) / OD mean values (cell viability) / Mean OD values (cell viability): MTT; for OD mean values (cell viability) / Mean OD values (cell viability): OD 570 nm; for OD mean values (cell viability): DMEM 2.5% FCS
Experimental: as §1
The dilution range prepared for the toxicity/viability assay was the following:
as §2, §3
Cell proliferation was evaluated using a colorimetric assay (MTT assay) after culture times of 1, 2 and 3 days. This assay is based on reduction of the yellow tetrazolium salt (MTT) [3-(4,5-dimethylthiazol bromide] to a blue-purple formazan product by the mitochondrial NADPH reductases of the cells, provided they are living. The crystals were then dissolved in 100% ethanol—DMSO mixture (v/v). Colouring of the supernatant, proportional to the number of living cells, was measured by optical density (OD) read-out on a spectrophotometer at a wavelength of 570 nm. The assay was conducted at D1, D2 and D3 (D0 corresponding to the time of addition of the solutions to be assayed).
The mean OD values of the triplicates are given on a graph for each kinetic time. Standard deviations are indicated.

Structure (SMILES): Nc1nc2[nH]cc(CN[C@H]3C=C[C@H](O)[C@@H]3O)c2c(=O)[nH]1 [Queuine, 2-amino-5-((((1s,4s,5r)-4,5-dihydroxy-2-cyclopenten-1-yl)amino)methyl)-1,7-dihydro-4h-pyrrolo(2,3-d)pyrimidin-4-one]
- migration compared with 2.5% FCS control ([1]; 10 μg/ml and 30 μg/ml in 2.5% FCS): better migration than in 2.5% FCS
- effect on migration of the fibroblasts ([1]; 10 μg/ml): has an effect on migration of the fibroblasts; also recorded: has an effect on the migration of adult HDFs
- gap closure (observation of photos) ([1]; 30 μg/ml in 2.5% FCS): the cells of the two edges meet in the centre of the gap
- effect on migration of the fibroblasts ([1]; 30 μg/ml): confirmed
- migration compared with positive 10% FCS control ([1]; 10 and 30 μg/ml): equivalent to that obtained with the positive 10% FCS control
- Mean - blank (BrdU OD) ([2]; 0.3 μg/ml, 24 h contact time): 1.181
- Mean ODs (BrdU cell proliferation) ([2]; 0.3 μg/ml, 24 h contact time, DMEM 2.5% FCS): 1.312
- Mean - blank (BrdU OD) ([2]; 0.3 μg/ml, 48 h contact time): 0.677
- Mean ODs (BrdU cell proliferation) ([2]; 0.3 μg/ml, 48 h contact time, shortened substrate incubation): 0.800
- Mean - blank (BrdU OD) ([2]; 0.3 μg/ml, 72 h contact time): 0.416
- Mean ODs (BrdU cell proliferation) ([2]; 0.3 μg/ml, 72 h contact time, shortened substrate incubation): 0.586
- Mean - blank (BrdU OD) ([2]; 1 μg/ml, 24 h contact time): 1.197
- Mean ODs (BrdU cell proliferation) ([2]; 1 μg/ml, 24 h contact time, DMEM 2.5% FCS): 1.328
- Mean - blank (BrdU OD) ([2]; 1 μg/ml, 48 h contact time): 0.803
- Mean ODs (BrdU cell proliferation) ([2]; 1 μg/ml, 48 h contact time, shortened substrate incubation): 0.926
- Mean - blank (BrdU OD) ([2]; 1 μg/ml, 72 h contact time): 0.378
- Mean ODs (BrdU cell proliferation) ([2]; 1 μg/ml, 72 h contact time, shortened substrate incubation): 0.548
- Mean - blank (BrdU OD) ([2]; 3 μg/ml, 24 h contact time): .391
- Mean ODs (BrdU cell proliferation) ([2]; 3 μg/ml, 24 h contact time, DMEM 2.5% FCS): 1.522
- Mean - blank (BrdU OD) ([2]; 3 μg/ml, 48 h contact time): 0.793
- Mean ODs (BrdU cell proliferation) ([2]; 3 μg/ml, 48 h contact time, shortened substrate incubation): 0.915
- Mean - blank (BrdU OD) ([2]; 3 μg/ml, 72 h contact time): 0.511
- Mean ODs (BrdU cell proliferation) ([2]; 3 μg/ml, 72 h contact time, shortened substrate incubation): 0.681
- Mean - blank (BrdU OD) ([2]; 10 μg/ml, 24 h contact time): 1.494
- Mean ODs (BrdU cell proliferation) ([2]; 10 μg/ml, 24 h contact time, DMEM 2.5% FCS): 1.625
- Mean - blank (BrdU OD) ([2]; 10 μg/ml, 48 h contact time): 0.943
- Mean ODs (BrdU cell proliferation) ([2]; 10 μg/ml, 48 h contact time, shortened substrate incubation): 1.066
- Mean - blank (BrdU OD) ([2]; 10 μg/ml, 72 h contact time): 0.538
- Mean ODs (BrdU cell proliferation) ([2]; 10 μg/ml, 72 h contact time, shortened substrate incubation): 0.708
- Mean - blank (BrdU OD) ([2]; 30 μg/ml, 24 h contact time): 1.502
- Mean ODs (BrdU cell proliferation) ([2]; 30 μg/ml, 24 h contact time, DMEM 2.5% FCS): 1.634
- Mean - blank (BrdU OD) ([2]; 30 μg/ml, 48 h contact time): 1.026
- Mean ODs (BrdU cell proliferation) ([2]; 30 μg/ml, 48 h contact time, shortened substrate incubation): 1.149
- Mean - blank (BrdU OD) ([2]; 30 μg/ml, 72 h contact time): 0.787
- Mean ODs (BrdU cell proliferation) ([2]; 30 μg/ml, 72 h contact time, shortened substrate incubation): 0.958
- proliferative effect ([2]; 3, 10 and 30 μg/ml after 72 hours' incubation): a proliferative effect is evidenced
- proliferative effect ([2]; 72 hours, 30 μg/ml): particularly pronounced; also recorded: major proliferative effect
- proliferative effect ([2]; 72 hours, 3 and 10 μg/ml): clear proliferative effect
- proliferative effect compared with the carrier ([2]; short times (24 and 48 hours)): no significant effect
- Mean - blank (cell viability OD) ([3]; 0.1 μg/ml, 24 h contact time): 0.133
- OD mean values (cell viability) ([3]; 0.1 μg/ml, 24 h contact time): 0.228
- Mean - blank (cell viability OD) ([3]; 0.1 μg/ml, 48 h contact time): 0.219
- Mean OD values (cell viability) ([3]; 0.1 μg/ml, 48 h contact time): 0.304
- Mean - blank (cell viability OD) ([3]; 0.1 μg/ml, 72 h contact time): 0.223
- Mean OD values (cell viability) ([3]; 0.1 μg/ml, 72 h contact time): 0.341
- Mean - blank (cell viability OD) ([3]; 1 μg/ml, 24 h contact time): 0.155
- OD mean values (cell viability) ([3]; 1 μg/ml, 24 h contact time): 0.250
- Mean - blank (cell viability OD) ([3]; 1 μg/ml, 48 h contact time): 0.246
- Mean OD values (cell viability) ([3]; 1 μg/ml, 48 h contact time): 0.331
- Mean - blank (cell viability OD) ([3]; 1 μg/ml, 72 h contact time): 0.244
- Mean OD values (cell viability) ([3]; 1 μg/ml, 72 h contact time): 0.362
- Mean - blank (cell viability OD) ([3]; 10 μg/ml, 24 h contact time): 0.151
- OD mean values (cell viability) ([3]; 10 μg/ml, 24 h contact time): 0.246
- Mean - blank (cell viability OD) ([3]; 10 μg/ml, 48 h contact time): 0.243
- Mean OD values (cell viability) ([3]; 10 μg/ml, 48 h contact time): 0.328
- Mean - blank (cell viability OD) ([3]; 10 μg/ml, 72 h contact time): 0.277
- Mean OD values (cell viability) ([3]; 10 μg/ml, 72 h contact time): 0.395
- Mean - blank (cell viability OD) ([3]; 100 μg/ml, 24 h contact time): 0.138
- OD mean values (cell viability) ([3]; 100 μg/ml, 24 h contact time): 0.233
- Mean - blank (cell viability OD) ([3]; 100 μg/ml, 48 h contact time): 0.188
- Mean OD values (cell viability) ([3]; 100 μg/ml, 48 h contact time): 0.273
- Mean - blank (cell viability OD) ([3]; 100 μg/ml, 72 h contact time): 0.154
- Mean OD values (cell viability) ([3]; 100 μg/ml, 72 h contact time): 0.272
- cytotoxic effect ([3]; 100 μg/ml, at 48 h): exhibited a cytotoxic effect
- cytotoxic effect ([3]; concentrations below 100 μg/ml): do not exhibit any cytotoxic effect; also recorded: did not display any cytotoxic effect
